Counter-ions that a name gives are not always drawn.

The values that follow come from US6306860A, “2,5-pyridinedicarboxylic acid derivatives” (Dong Wha Pharm. Inc. Co., Ltd., priority 1998, dated 2001).

The target in test [1] is T1, HIV reverse transcriptase (Human immunodeficiency virus type 1 group M subtype B, UniProt P04585).
T1 construct: purchased Boehringer Mannheim
Put plainly: In vitro inhibition test against HIV reverse transcriptase. The format is biochemical. The settings on record: read-out: Inhibitory activity of HIV-RT (%); for inhibition at 0.1 µg/mL: 0.1 μg/ml; for inhibition at 1 µg/mL: 1 μg/ml. The procedure:
Experiment 2: The in vitro Inhibition Test Against HIV Reverse Transcriptase
The inhibitory activity in vitro was measured using a non-radioactive reverse transcriptase assay Kit (Boehringer Mannheim).
At first, 20 μl(40 ng) of HIV-RT was added to the wells, coated with streptavidin and with the addition of 20 μl reaction mixture containing template/primer hybrid poly(A)/oligo(dT)15 and DIG-(digoxigenin)-dUTP, biotin-dUTP and TTP, 20 μl of test compound was added and reacted at 37° C. for 1 hour. The control without test compound was used for the comparison of related activity. Since DNA containing nucleotide labeled with digoxigenin and biotine was prepared by the action of HIV-RT, it was combined with streptavidin coated at the bottom of the wells. After the reaction was completed, remaining impurities were removed by washing each well with 250 μl buffer solution (pH 7.0) for 30 seconds 5 times and with the addition of 200 μl anti-DIG-POD antibody, the mixture was reacted at 37° C. for 1 hour. For the removal of remaining impurities again, the reacting solution was washed with a buffer solution and with the addition of 200 μl ABTS™ each, a substrate of POD(peroxidase), the solution was reacted at room temperature for 30 minutes. The absorbance was read by ELISA reader at 405 nm for the assay of reverse transcriptase activity and its inhibition activity.

The next test deals with T2, HBV polymerase (Hepatitis B virus genotype D subtype ayw, UniProt P03156).
T2 construct: made in house; host or cells: E. coli
T2 sequence (P03156 whole entry): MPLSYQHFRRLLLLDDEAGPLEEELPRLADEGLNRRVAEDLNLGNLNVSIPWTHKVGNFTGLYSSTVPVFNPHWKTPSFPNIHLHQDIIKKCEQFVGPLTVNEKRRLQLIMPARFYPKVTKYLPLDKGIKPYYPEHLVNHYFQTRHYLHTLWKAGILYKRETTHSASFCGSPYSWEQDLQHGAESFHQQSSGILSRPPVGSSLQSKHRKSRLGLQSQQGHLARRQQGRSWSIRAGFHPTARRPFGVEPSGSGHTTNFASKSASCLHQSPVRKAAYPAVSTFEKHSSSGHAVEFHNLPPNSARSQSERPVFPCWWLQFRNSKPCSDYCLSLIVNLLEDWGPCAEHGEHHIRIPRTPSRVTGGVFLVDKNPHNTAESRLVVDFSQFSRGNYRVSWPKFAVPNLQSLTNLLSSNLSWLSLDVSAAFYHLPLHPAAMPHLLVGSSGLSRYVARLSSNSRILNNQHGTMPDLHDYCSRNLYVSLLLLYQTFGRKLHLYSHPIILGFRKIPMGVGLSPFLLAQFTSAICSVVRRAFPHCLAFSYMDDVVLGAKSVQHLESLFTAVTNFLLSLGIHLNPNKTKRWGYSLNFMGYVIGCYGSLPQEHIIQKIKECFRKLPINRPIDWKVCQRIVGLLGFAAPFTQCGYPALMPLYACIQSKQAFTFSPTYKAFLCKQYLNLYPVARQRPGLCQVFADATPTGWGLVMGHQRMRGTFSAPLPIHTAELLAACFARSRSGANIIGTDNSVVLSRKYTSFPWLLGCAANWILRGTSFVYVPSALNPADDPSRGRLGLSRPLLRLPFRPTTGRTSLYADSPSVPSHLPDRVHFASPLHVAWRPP
Put plainly: Inhibitory activities against HBV polymerase (reverse transcriptase activity) in vitro. The settings on record: read-out: Inhibitory activity of HBV-RT (%); for inhibition at 0.01 µg/mL: 0.01 μg/ml; for inhibition at 0.1 µg/mL: 0.1 μg/ml; for inhibition at 1 µg/mL: 1 μg/ml. Format: biochemical. From the text: Experiment 1:Inhibitory Activities Against HBV Polymerase in vitro
Recently, the inventors of the present invention have produced a recombinant HBV polymerase that is expressed from E.coli transformant, measured its enzyme activity and filed patent applications threrof [Korean Pat. Appl. Nos. 94-3918 and 96-33998].
The inventors have also established a method of measuring the reverse transcriptase activity of HBV polymerase in vitro. The fundamental principle is the same as the ELISA method, and after reacting the substrate with biotin- and DIG-modified nucleotide, a method of recognizing the polymerized substrate as anti-DIG antibody with peroxidase was used.
20 μl of HBV polymerase, 20 μl of reaction mixture and 20 μl of test compound was mixed and reacted at 14° C.~30° C. for 18~24 hours. Then, the inhibitory effect of the test compound against reverse transcriptase activity in the HBV polymerase was examined, compared with the results of control tests without the test compound.

For the compound `Nc1cccnc1N1CCN(C(=O)c2ccc(C(=O)NCc3ccccn3)cn2)CC1` [Exam. 75, 6-[1-(3-amino-2-pyridyl)piperazin-4-yl-carbonyl]-N-(2-pyridylmethyl)nicotinamide.HCl], in test [1], the inhibition at 0.1 µg/mL was determined as 53% and the inhibition at 1 µg/mL amounted to 72%. For the same compound, at HBV polymerase, the inhibition at 0.01 µg/mL worked out at 22%, the inhibition at 0.1 µg/mL was determined as 54% and the inhibition at 1 µg/mL came out at 72%.

For the compound `CC(C)Nc1cccnc1N1CCN(C(=O)c2ccc(C(=O)NCc3ccncc3)cn2)CC1` [Exam. 77, 6-[1-[3-(isopropylamino)-2-pyridyl]piperazin-4-yl-carbonyl]-N-(4-pyridylmethyl)nicotinamide], in test [1], the inhibition at 0.1 µg/mL came to 59% and the inhibition at 1 µg/mL was determined as 79%. For the same compound, at HBV polymerase, the inhibition at 0.01 µg/mL is 39%, the inhibition at 0.1 µg/mL is 65% and the inhibition at 1 µg/mL was found to be 79%.

As for `Cc1cc(NC(=O)c2ccc(C(=O)N3CCN(c4ncccc4NC(C)C)CC3)nc2)n[nH]1` [Exam. 66, 6-[1-[3-(isopropylamino)-2-pyridyl]piperazin-4-yl-carbonyl]-N-(5-methyl-1H-pyrazol-3-yl)nicotinamide], in test [1], the inhibition at 0.1 µg/mL stood at 52% and the inhibition at 1 µg/mL is 76%. Further, on HBV polymerase, the inhibition at 0.01 µg/mL was determined as 20%, the inhibition at 0.1 µg/mL was found to be 53% and the inhibition at 1 µg/mL was determined as 70%.

Consider `Nc1cccnc1N1CCN(C(=O)c2ccc(C(=O)NC3CCOC3=O)cn2)CC1` (stereo not drawn) [Exam. 56, 2-[1-(3-amino-2-pyridyl)piperazin-4-yl-carbonyl]-5-[N-(tetrahydro-2-furanon-3-yl)carbamoyl]pyridine], for which, in test [1], the inhibition at 0.1 µg/mL is 45% and the inhibition at 1 µg/mL was 74%. Also, on HBV polymerase, the inhibition at 0.01 µg/mL was 65%, the inhibition at 0.1 µg/mL is 70% and the inhibition at 1 µg/mL stood at 82%.

As to `CC(C)Nc1cccnc1N1CCN(C(=O)c2ccc(C(=O)NC3CC3)cn2)CC1` [Exam. 35, 5-(N-cyclopropylcarbamoyl)-2-[1-[3-(isopropylamino)-2-pyridyl]piperazin-4-yl-carbonyl]pyridine], in test [1], the inhibition at 0.1 µg/mL came to 30% and the inhibition at 1 µg/mL is 68%. In addition, on HBV polymerase, the inhibition at 0.01 µg/mL turned out to be 5%, the inhibition at 0.1 µg/mL worked out at 51% and the inhibition at 1 µg/mL worked out at 62%.

Consider `Cc1cc(NC(=O)c2ccc(C(=O)N3CCN(c4ncccc4NC(C)C)CC3)nc2)no1` [Exam. 67, 6-[1-[3-(isopropylamino)-2-pyridyl]piperazin-4-yl-carbonyl]-N-(5-methylisoxazol-3-yl)nicotinamide], for which, in test [1], the inhibition at 0.1 µg/mL was 30% and the inhibition at 1 µg/mL was found to be 58%. At HBV polymerase, the inhibition at 0.01 µg/mL stood at 25%, the inhibition at 0.1 µg/mL came to 50% and the inhibition at 1 µg/mL worked out at 72%.

On to `CC(C)Nc1cccnc1N1CCN(C(=O)c2ccc(C(=O)NC3CCCC3)cn2)CC1` [Exam. 37, 5-(N-cyclopentylcarbamoyl)-2-[1-[3-(isopropylamino)-2-pyridyl]piperazin-4-yl-carbonyl]pyridine], for which, in test [1], the inhibition at 0.1 µg/mL was 25% and the inhibition at 1 µg/mL turned out to be 51%. Besides, on HBV polymerase, the inhibition at 0.01 µg/mL came to 39%, the inhibition at 0.1 µg/mL is 65% and the inhibition at 1 µg/mL was found to be 75%.

Take `CC(C)Nc1cccnc1N1CCN(C(=O)c2ccc(C(=O)NCCO)cn2)CC1` [Exam. 1, 5-[N-(2-hydroxyethyl)carbamoyl]-2-[1-[3-(isopropylamino)-2-pyridyl]piperazin-4-yl-carbonyl]pyridine]: at HBV polymerase, the inhibition at 0.01 µg/mL stood at 30%, the inhibition at 0.1 µg/mL came to 51% and the inhibition at 1 µg/mL was 54%.

As to `CC(C)Nc1cccnc1N1CCN(C(=O)c2ccc(C(=O)NCc3ccccn3)cn2)CC1` [Exam. 73, 6-[1-[3-(isopropylamino)-2-pyridyl]piperazin-4-yl-carbonyl]-N-(2-pyridylmethyl)nicotinamide.HCl], in test [1], the inhibition at 0.1 µg/mL turned out to be 57% and the inhibition at 1 µg/mL is 73%. On HBV polymerase, the inhibition at 0.01 µg/mL amounted to 53%, the inhibition at 0.1 µg/mL worked out at 62% and the inhibition at 1 µg/mL amounted to 77%.

On to `CC[C@H](CO)NC(=O)c1ccc(C(=O)N2CCN(c3ncccc3NC(C)C)CC2)nc1` [Exam. 7, 5-[N-[(1R)-1-ethyl-2-hydroxyethyl]carbamoyl]-2-[1-[3-(isopropylamino)-2-pyridyl]piperazin-4-yl-carbonyl]pyridine], for which, at HBV polymerase, the inhibition at 0.01 µg/mL was found to be 53%, the inhibition at 0.1 µg/mL was found to be 64% and the inhibition at 1 µg/mL came to 70%.

For the compound `Nc1cccnc1N1CCN(C(=O)c2ccc(C(=O)NCCO)cn2)CC1` [Exam. 20, 2-[1-(3-Amino-2-pyridyl)piperazine4-yl-carbonyl]-5-[N-(2-hydroxyethyl)carbamoyl]pyridine], at HBV polymerase, the inhibition at 0.01 µg/mL was 54%, the inhibition at 0.1 µg/mL was 67% and the inhibition at 1 µg/mL was 74%.

As for `CC(C)CNc1cccnc1N1CCN(C(=O)c2ccc(C(=O)Nc3ncccc3O)cn2)CC1` [Exam. 86], on HBV polymerase, the inhibition at 0.01 µg/mL amounted to 13%, the inhibition at 0.1 µg/mL came out at 46% and the inhibition at 1 µg/mL was 71%.

As for `CCNc1cccnc1N1CCN(C(=O)c2ccc(C(=O)NC(C)(C)CO)cn2)CC1` [Exam. 19, 5-[N-(1,1-dimethyl-2-hydroxyethyl)carbamoyl]-2-[1-[3-(ethylamino)-2-pyridyl]piperazin-4-yl-carbonyl]pyridine], on HBV polymerase, the inhibition at 0.01 µg/mL was 32%, the inhibition at 0.1 µg/mL was found to be 56% and the inhibition at 1 µg/mL was 72%.

Consider `CC(C)(CO)NC(=O)c1ccc(C(=O)N2CCN(c3ncccc3N)CC2)nc1` [Exam. 21, 2-[1-(3-amino-2-pyridyl)piperazin-4-yl-carbonyl]-5-[N-(1,1-dimethyl-2-hydroxyethyl)carbamoyl]pyridine], for which, at HBV polymerase, the inhibition at 0.01 µg/mL stood at 38%, the inhibition at 0.1 µg/mL turned out to be 62% and the inhibition at 1 µg/mL came to 70%.

Turning to `CCN(CCO)C(=O)c1ccc(C(=O)N2CCN(c3ncccc3NC(C)C)CC2)nc1` [Exam. 14, 5-[N-ethyl-N-(2-hydroxyethyl)carbamoyl]-2-[1-[3-(isopropylamino)-2-pyridyl]piperazin-4-yl-carbonyl]pyridine], on HBV polymerase, the inhibition at 0.1 µg/mL was 10% and the inhibition at 1 µg/mL was 35%.

As to `CC(C)Nc1cccnc1N1CCN(C(=O)c2ccc(C(=O)N(CCO)c3ccccc3)cn2)CC1` [Exam. 17], at HBV polymerase, the inhibition at 0.01 µg/mL was 42%, the inhibition at 0.1 µg/mL is 53% and the inhibition at 1 µg/mL is 66%.

On to `CC(C)Nc1cccnc1N1CCN(C(=O)c2ccc(C(=O)NCCCO)cn2)CC1` [Exam. 2, 5-[N-(3-Hydroxypropyl)carbamoyl]-2-[1-[3-(isopropylamino)-2-pyridyl]piperazine-4-yl-carbonyl]pyridine], for which, at HBV polymerase, the inhibition at 0.01 µg/mL worked out at 49%, the inhibition at 0.1 µg/mL was 60% and the inhibition at 1 µg/mL turned out to be 71%.

With `CCNc1cccnc1N1CCN(C(=O)c2ccc(C(=O)NCCO)cn2)CC1` [Exam. 18, 2-[1-[3-(ethylamino)-2-pyridyl]piperazin-4-yl-carbonyl]-5-[N-(2-hydroxyethyl)carbamoyl]pyridine], on HBV polymerase, the inhibition at 0.01 µg/mL amounted to 52%, the inhibition at 0.1 µg/mL was 69% and the inhibition at 1 µg/mL amounted to 84%.

As for `CC(C)Nc1cccnc1N1CCN(C(=O)c2ccc(C(=O)N[C@@H](C)CO)cn2)CC1` [Exam. 4, 5-[N-[(1S)-2-hydroxy-1-methylethyl]carbamoyl]-2-[1-[3-(isopropylamino)-2-pyridyl]piperazin-4-yl-carbonyl]pyridine], on HBV polymerase, the inhibition at 0.01 µg/mL was determined as 30%, the inhibition at 0.1 µg/mL was 39% and the inhibition at 1 µg/mL was determined as 56%.

`CC(C)Nc1cccnc1N1CCN(C(=O)c2ccc(C(=O)N[C@H](C)CO)cn2)CC1` [Exam. 3, 5-[N-[(1R)-2-hydroxy-1-methylethyl]carbamoyl]-2-[1-[3-(isopropylamino)-2-pyridyl]piperazin-4-yl-carbonyl]pyridine]: at HBV polymerase, the inhibition at 0.01 µg/mL is 41%, the inhibition at 0.1 µg/mL was determined as 57% and the inhibition at 1 µg/mL was found to be 74%.
